Earlier results in US9439866B2, “Trazodone composition for once a day administration” (priority 2005, dated 2016).
“Also recorded” adds a separate entry of the source.

solubility below its pKa (acid media (stomach and upper intestines), pH below pKa): highly soluble
solubility above its pKa (neutral and basic conditions of the lower intestine, pH above pKa): very low; also recorded: poorly soluble
SMILES: Cl.O=c1n(CCCN2CCN(c3cccc(Cl)c3)CC2)nc2ccccn12 [trazodone]
